# Measurements taken from publication PMC9320521, “Detection of Unprecedented CYP74 Enzyme in Mammal: Hydroperoxide Lyase CYP74C44 of the Bat Sturnira hondurensis” (International Journal of Molecular Sciences, 2022).
# Tested on: CYP74C44 (ShHPL)
# Assay: UV absorbance decrease at […] nm
# Assay type: biochemical, Sturnira hondurensis
# Conditions: Na phosphate buffer pH 7.0, 25 °C, 5 to 150 μM substrate
row,SMILES,Km
1,"CCCCC/C=C\C=C\[C@H](CCCCCCCC(=O)O)OO [9-HPOD, (9S,10E,12Z)-9-Hydroperoxy-10,12-octadecadienoic]",46.6 ± 7.2 µM
2,"CC/C=C\C/C=C\C=C\[C@H](CCCCCCCC(=O)O)OO [9-HPOT, (9S,10E,12Z,15Z)-9-hydroperoxy-10,12,15-octadecatrienoic]",20.9 ± 5.6 µM
3,"CCCCC[C@@H](/C=C/C=C\CCCCCCCC(=O)O)OO [13-HPOD, (9Z,11E,13S)-13-hydroperoxy-9,11-octadecadienoic]",57.9 ± 13.3 µM
4,"CC/C=C\C[C@@H](/C=C/C=C\CCCCCCCC(=O)O)OO [13-HPOT, (9Z,11E,13S,15Z)-13-hydroperoxy-9,11,15-octadecatrienoic]",28.4 ± 6.7 µM
5,CC/C=C\C[C@@H](/C=C/C=C\C/C=C\C/C=C\CCCC(=O)O)OO [15-HPEPE],8.17 ± 1.6 µM
